Laboratory results reported in patent US6855710B2, “Substituted indolines with an inhibitory effect on various kinases and complexes of CDKs” (Boehringer Ingelheim Pharma KG, priority 1998, dated 2005).

SMILES	melting point
NC(=O)C1CCN(Cc2ccc(N/C(=C3\C(=O)Nc4ccc([N+](=O)[O-])cc43)c3ccccc3)cc2)CC1 [Example 247, (Z)-3-{1-[4-(4-aminocarbonyl-piperidinomethyl)-phenylamino]-1-phenyl-methylidene}-5-nitro-2-indolinone]	296 to 297 °C
COc1ccccc1N/C(=C1\C(=O)Nc2ccccc21)c1ccccc1 [Example 4, (Z)-3-[1-(2-methoxy-phenylamino)-1-phenyl-methylidene]-2-indolinone]	237 °C
CN(C)CCNc1ccc(N/C(=C2\C(=O)Nc3ccccc32)c2ccccc2)cc1 [Example 338, (Z)-3-{1-[4-(2-dimethylamino-ethylamino)-phenylamino]-1-phenyl-methylidene}-2-indolinone]	258 to 260 °C
O=C1Nc2ccccc2/C1=C(/Nc1ccc(OCCN2CCCCC2)cc1)c1ccccc1 [Example 285, (Z)-3-{1-[4-(2-piperidinoethyloxy)-phenylamino]-1-phenyl-methylidene}-2-indolinone]	198 to 200 °C
CN(C)CCN(C)S(=O)(=O)c1ccc(N/C(=C2\C(=O)Nc3ccccc32)c2ccccc2)cc1 [Example 400, (Z)-3-{1-[4-(N-(2-dimethylaminoethyl)-N-methyl-aminosulphonyl)-phenylamino]-1-phenyl-methylidene}-2-indolinone]	200 to 203 °C
O=C1Nc2ccc([N+](=O)[O-])cc2/C1=C(/Nc1ccc(Br)cc1)c1ccc(Cn2ccnc2)cc1 [Example 438, (Z)-3-{1-[4-Bromophenylamino]-1-[4-(imidazol-1-ylmethyl)-phenyl]-methylidene}-5-nitro-2-indolinone]	260 to 265 °C
O=C1Nc2ccc([N+](=O)[O-])cc2/C1=C(/Nc1ccc(NCCN2CCOCC2)cc1)c1ccccc1 [Example 332, (Z)-3-{1-[4-(2-morpholinoethylamino)-phenylamino]-1-phenyl-methylidene}-5-nitro-2-indolinone]	253 °C
CN(C)CC(=O)NCc1ccc(N/C(=C2\C(=O)Nc3ccc([N+](=O)[O-])cc32)c2ccccc2)cc1 [Example 142, (Z)-3-[1-(4-dimethylaminomethylcarbonylaminomethyl-phenylamino)-1-phenyl-methylidene]-5-nitro-2-indolinone]	272 to 273 °C
CN(C)Cc1ccc(N/C(=C2\C(=O)Nc3ccc([N+](=O)[O-])cc32)c2cccc(Cl)c2)cc1 [Example 224, (Z)-3-[1-(4-dimethylaminomethyl-phenylamino)-1-(3-chlorophenyl)-methylidene]-5-nitro-2-indolinone]	274 °C
CN(C)CCCOc1ccc(N/C(=C2\C(=O)Nc3ccccc32)c2ccccc2)cc1 [Example 286, (Z)-3-{1-[4-(3-dimethylaminopropyloxy)-phenylamino]-1-phenyl-methylidene}-2-indolinone]	215 to 217 °C
CCNCc1ccc(N/C(=C2\C(=O)Nc3ccc([N+](=O)[O-])cc32)c2ccccc2)cc1 [Example 160, (Z)-3-[1-(4-ethylaminomethyl-phenylamino)-1-phenyl-methylidene]-5-nitro-2-indolinone]	220 to 223 °C
CCOC(=O)CN(C)S(=O)(=O)c1ccc(N/C(=C2\C(=O)Nc3ccc([N+](=O)[O-])cc32)c2ccccc2)cc1 [Example 413, (Z)-3-{1-[4-(N-ethoxycarbonylmethyl-N-methyl-aminosulphonyl)-phenylamino]-1-phenyl-methylidene}-5-nitro-2-indolinone]	206 to 207 °C
CN(C)Cc1ccc(N/C(=C2\C(=O)Nc3ccccc32)c2ccc([N+](=O)[O-])cc2)cc1 [Example 219, (Z)-3-[1-(4-dimethylaminomethyl-phenylamino)-1-(4-nitrophenyl)-methylidene]-2-indolinone]	235 °C
CN(C(=O)CN)c1ccc(N/C(=C2\C(=O)Nc3ccc([N+](=O)[O-])cc32)c2ccccc2)cc1 [Example 139, (Z)-3-{1-[4-(N-aminomethylcarbonyl-N-methyl-amino)-phenyl-amino]-1-phenyl-methylidene}-5-nitro-2-indolinone]	255 to 256 °C
CCOC(=O)CNS(=O)(=O)c1ccc(N/C(=C2\C(=O)Nc3ccc([N+](=O)[O-])cc32)c2ccccc2)cc1 [Example 410, (Z)-3-{1-[4-(ethoxycarbonylmethylaminosulphonyl)-phenylamino]-1-phenyl-methylidene}-5-nitro-2-indolinone]	247 to 249 °C
CN(C)CCc1ccc(N/C(=C2\C(=O)Nc3ccccc32)c2ccccc2)cc1 [Example 268, (Z)-3-{1-[4-(2-dimethylamino-ethyl)-phenylamino]-1-phenyl-methylidene}-2-indolinone]	244 to 246 °C
CC(C)S(=O)(=O)N(CCN(C)C)c1ccc(N/C(=C2\C(=O)Nc3ccccc32)c2ccccc2)cc1 [Example 309, (Z)-3-{1-[4-(N-(2-dimethylaminoethyl)-N-isopropylsulphonyl-amino)-phenylamino]-1-phenyl-methylidene}-2-indolinone]	247 °C
CC1CCN(Cc2ccc(N/C(=C3\C(=O)Nc4ccc([N+](=O)[O-])cc43)c3ccccc3)cc2)CC1 [Example 169, (Z)-3-{1-[4-(4-methylpiperidinomethyl)-phenylamino]-1-phenyl-methylidene}-5-nitro-2-indolinone]	161 °C
CN(C)Cc1ccc(N/C(=C2\C(=O)Nc3ccc([N+](=O)[O-])cc32)c2ccc(Cl)cc2)cc1 [Example 222, (Z)-3-[1-(4-dimethylaminomethyl-phenylamino)-1-(4-chlorophenyl)-methylidene]-5-nitro-2-indolinone]	311 °C
CN(C(=O)CN1CCCCC1)c1ccc(N/C(=C2\C(=O)Nc3ccccc32)c2ccccc2)cc1 [Example 50, (Z)-3-{1-[4-(N-piperidinomethylcarbonyl-N-methyl-amino)-phenylamino]-1-phenyl-methylidene}-2-indolinone]	230 to 235 °C (dec.)
CCN(CC)Cc1ccc(N/C(=C2\C(=O)Nc3ccc([N+](=O)[O-])cc32)c2ccccc2)cc1 [Example 159, (Z)-3-[1-(4-diethylaminomethyl-phenylamino)-1-phenyl-methylidene]-5-nitro-2-indolinone]	173 to 174 °C
CCCCN(CCCC)Cc1ccc(N/C(=C2\C(=O)Nc3ccc([N+](=O)[O-])cc32)c2ccccc2)cc1 [Example 165, (Z)-3-[1-(4-Dibutylaminomethyl-phenylamino)-1-phenyl-methylidene]-5-nitro-2-indolinone]	175 °C
Cl.NCC(=O)NCc1cccc(N/C(=C2\C(=O)Nc3ccc([N+](=O)[O-])cc32)c2ccccc2)c1	309 °C
CN(C)C(=O)CCNCc1ccc(N/C(=C2\C(=O)Nc3ccc([N+](=O)[O-])cc32)c2ccccc2)cc1 [Example 243, (Z)-3-{1-[4-(2-dimethylaminocarbonyl-ethylaminomethyl)-phenylamino]-1-phenyl-methylidene}-5-nitro-2-indolinone]	215 to 217 °C

Now from value to compound:

melting point	SMILES
270 °C (dec.)	CNC(=O)CN(C(C)=O)c1ccc(N/C(=C2\C(=O)Nc3ccccc32)c2ccccc2)cc1 [Example 354, (Z)-3-{1-[4-(N-methylaminocarbonylmethyl-N-acetyl-amino)-phenylamino]-1-phenyl-methylidene}-2-indolinone]
187 to 189 °C	CN(CCCOc1ccc(N/C(=C2\C(=O)Nc3ccccc32)c2ccccc2)cc1)Cc1ccccc1 [Example 288, (Z)-3-{1-[4-(3-(N-benzyl-N-methyl-amino)-propyloxy)-phenylamino]-1-phenyl-methylidene}-2-indolinone]
245 to 247 °C	CC(=O)NCC(=O)Nc1ccc(N/C(=C2\C(=O)Nc3ccccc32)c2ccccc2)cc1 [Example 368, (Z)-3-{1-[4-(acetylaminomethylcarbonylamino)-phenylamino]-1-phenyl-methylidene}-2-indolinone]
259 °C	CCS(=O)(=O)N(CC(N)=O)c1ccc(N/C(=C2\C(=O)Nc3ccccc32)c2ccccc2)cc1 [Example 299, (Z)-3-{1-[4-(N-aminocarbonylmethyl-N-ethylsulphonyl-amino)-phenylamino]-1-phenyl-methylidene}-2-indolinone]
270 °C (dec.)	CCC(=O)N(CC(=O)O)c1ccc(N/C(=C2\C(=O)Nc3ccccc32)c2ccccc2)cc1 [Example 357, (Z)-3-{1-[4-(N-carboxymethyl-N-propionyl-amino)-phenylamino]-1-phenyl-methylidene}-2-indolinone]
186 to 188 °C	COCCNCC(=O)N(C)c1ccc(N/C(=C2\C(=O)Nc3ccccc32)c2ccccc2)cc1 [Example 371, (Z)-3-{1-[4-(N-(2-methoxyethylaminomethylcarbonyl)-N-methyl-amino)-phenylamino]-1-phenyl-methylidene}-2-indolinone]
277 °C (dec.)	O=C(O)CN(C(=O)c1ccccc1)c1ccc(N/C(=C2\C(=O)Nc3ccccc32)c2ccccc2)cc1 [Example 361, (Z)-3-{1-[4-(N-carboxymethyl-N-benzoyl-amino)-phenylamino]-1-phenyl-methylidene}-2-indolinone]
268 °C	CCC(=O)N(CC(=O)NC)c1ccc(N/C(=C2\C(=O)Nc3ccccc32)c2ccccc2)cc1 [Example 358, (Z)-3-{1-[4-(N-methylaminocarbonylmethyl-N-propionyl-amino)-phenylamino]-1-phenyl-methylidene}-2-indolinone]
238 to 242 °C	CN(C)C(=N)c1cccc(N/C(=C2\C(=O)Nc3ccccc32)c2ccccc2)c1 [Example 66, (Z)-3-{1-[3-(N,N-dimethylcarbamimidoyl)-phenylamino)-1-phenyl-methylidene}-2-indolinone]
254 °C	NS(=O)(=O)c1ccc(N/C(=C2\C(=O)Nc3ccccc32)c2ccccc2)cc1 [Example 396, (Z)-3-{1-[4-(aminosulphonyl)-phenylamino]-1-phenyl-methylidene}-2-indolinone]
255 to 256 °C	CCC(=O)Nc1ccc(N/C(=C2\C(=O)Nc3ccccc32)c2ccccc2)cc1 [Example 39, (Z)-3-[1-(4-propionylamino-phenylamino)-1-phenyl-methylidene]-2-indolinone]
